Measurements: US5686486A, “4-hydroxy-benzopyran-2-ones and 4-hydroxy-cycloalkyl[b]pyran-2-ones useful to treat retroviral infections” (priority 1995, dated 1997)
Where “and” joins values, the source holds several entries; their conditions need not be identical. Equal values may be shown once. Where a name gives a salt, the structure may show the parent alone. Read-outs that look alike come from different tables or passages of the source. Values belong to the compound of their own block, whether it stands above or below them.

How the values were obtained:
[1] = molecular target: T1, HIV-1 protease (Human immunodeficiency virus type 1 group M subtype B, UniProt P04585); assay: biochemical; conditions: read-out: HIV-1 FITC KI
Protocol: Determination of Ki values utilizes the same materials and equipment employed for percent inhibition studies. Two-fold serial dilutions are made for a given inhibitor from 2, 3 or 4 starting concentrations with a total of 24, 36 or 48 individual inhibitor concentrations. These dilutions are performed utilizing the BioMek robotics system. The assay consists of 10 μL of 40 nM HIV-1 protease, 10 μL of the various inhibitor concentrations, and 20 μL of 200 μM substrate (40 μL total). The reaction is allowed to proceed for 90 min at room temperature, terminated with 40 μL of avidin beads and processed (supra vide). An inhibitor with a known Ki is run in parallel to verify the validity of the assay. The data is processed utilizing a computer program employing a nonlinear least square analysis of the data to generate the Ki values.

[2] = molecular target: T1, HIV-1 protease; assay: biochemical; conditions: for inhibition at 0.123 µM: read-out: HIV-1 Protease % Inhib, dose 0.123 uM; for IC50: HIV-1 Protease IC50; for inhibition at 1 µM: read-out: HIV-1 Protease % Inhib, dose 1.000 uM; for inhibition at 100 µM: read-out: HIV-1 Protease % Inhib, dose 100.000 uM
How it was run: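 Percent inhibition derived from fluorescent cleavage product separated by filtration after streptavidin-bead capture of intact biotin/FITC substrate. Reaction: enzyme (10 μl, 0.1 μM stock) with substrate (20 μl, 0.2 μM stock) and compound, 1 h at room temperature in dark, pH 5.5 acetate buffer with 1.0 M NaCl and 0.05% NP-40.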

[3] = read-out: HIV-1 Protease % Inhib, dose 0.370 uM
[4] = read-out: HIV-1 Protease % Inhib, dose 1.100 uM
[5] = read-out: HIV-1 Protease % Inhib, dose 3.300 uM
[6] = read-out: HIV-1 Protease % Inhib, dose 10.000 uM
[7] = read-out: HIV-1 Protease % Inhib, dose 30.000 uM
[8] = dose 10.000 uM, read-out: HIV-1 Protease % Inhib
[9] = dose 30.000 uM, read-out: HIV-1 Protease % Inhib
[10] = dose 1.100 uM, read-out: HIV-1 Protease % Inhib
[11] = dose 3.300 uM, read-out: HIV-1 Protease % Inhib

Ki [1]: 1.23 nM
SMILES: O=c1oc2c(c(O)c1[C@H](c1cccc(NS(=O)(=O)c3ccc(Cl)cc3)c1)C1CC1)CCCCCC2 [Example 250, (-)-4-Chloro-N-[3-[cyclopropyl(5,6,7,8,9,10-hexahydro-4-hydroxy-2-oxo-2H-cycloocta[b]pyran-3-yl)methyl]phenyl]-benzenesulfonamide]

SMILES: CCCC1CCCCCc2c1oc(=O)c([C@@H](c1ccccc1)C1CC1)c2O (single isomer, unassigned) [Example 233, 3-(R)-(Cyclopropylphenylmethyl)4-hydroxy-10-(R or S)-propyl-5,6,7,8,9,10-hexahydro-cycloocta[b]pyran-2-one]
Ki [1]: 147 nM and 180 nM and 302 nM

SMILES: CCCC1CCCCCc2c1oc(=O)c([C@@H](c1ccccc1)C1CC1)c2O (single isomer, unassigned) [Example 234, 3-(R)-(Cyclopropylphenylmethyl)4-hydroxy-10-(R or S)-propyl-5,6,7,8,9,10-hexahydro-cycloocta[b]pyran-2-one]
Ki [1]: 12.8 nM and 13 nM and 18.8 nM

Ki [1]: 3 nM
SMILES: O=c1oc2c(c(O)c1[C@H](c1cccc(NS(=O)(=O)/C=C/c3ccccc3)c1)C1CC1)CCCCCC2 [Example 257, (-)-N-[3-[Cyclopropyl(5,6,7,8,9,10-hexahydro4-hydroxy-2-oxo-2H cycloocta[b]pyran-3-yl)methyl]phenyl]-2-phenyl-[(E)]-ethenesulfonamide]

Ki [1]: 2.3 nM
SMILES: O=c1oc2c(c(O)c1[C@@H](c1cccc(NS(=O)(=O)c3ccccc3)c1)C1CC1)CCCCCC2 [Example 401, N-[3-[Cyclopropyl(5,6,7,8,9,10-hexahydro-4-hydroxy-2-oxo-2H-cycloocta[b]pyran-3-yl)methyl]phenyl]-(R)-benzenesulfonamide]

Ki [1]: 34.8 nM
SMILES: O=c1oc2c(c(O)c1[C@@H](c1ccccc1)C1CC1)CCCCCC2 [Example 228]

SMILES: CCCC1CCCCCc2c1oc(=O)c([C@H](c1ccccc1)C1CC1)c2O (single isomer, unassigned) [Example 236, 3-(S)-(Cyclopropylphenylmethyl)-4-hydroxy-10-(R or S)-propyl-5,6,7,8,9,10-hexahydro-cycloocta[b]pyran-2-one]
Ki [1]: 10 nM and 8 nM

SMILES: O=c1oc2c(c(O)c1C(c1ccccc1)C1CC1)CCCCC2 (single isomer, unassigned) [Example 230, (R or S)-3-(Cyclopropylphenylmethyl)-6,7,8,9-tetrahydro-4-hydroxy-cyclohepta[b]pyran-2(5H)-one]
Ki [1]: 264 nM and 280 nM

Ki [1]: 0.62 nM
SMILES: N#Cc1ccc(S(=O)(=O)Nc2cccc([C@@H](c3c(O)c4c(oc3=O)CCCCCC4)C3CC3)c2)cc1 [Example 255, (-)-4-Cyano-N-[3-[cyclopropyl(5,6,7,8,9, 10-hexahydro-4-hydroxy-2-oxo-2H-cycloocta[b]pyran-3-yl)methyl]phenyl]-benzenesulfonamide]

SMILES: COc1ccc(S(=O)(=O)Nc2cccc(C(c3c(O)c4c(oc3=O)CCCCCC4)C3CC3)c2)cc1 (stereo not drawn) [Example 275, N-[3-[Cyclopropyl(5,6,7,8,9, 10-hexahydro-4-hydroxy-2-oxo-2H-cycloocta[b]pyran-3-yl)methyl]phenyl]-4-methoxy-benzenesulfonamide]
inhibition at 0.123 µM [2]: 79.3%
inhibition at 0.37 µM [2, 3]: 120%
inhibition at 1.1 µM [2, 4]: 128%
inhibition at 3.3 µM [2, 5]: 131%
inhibition at 10 µM [2, 6]: 133%
inhibition at 30 µM [2, 7]: 131%

inhibition at 10 µM [2, 8]: 26.6%
inhibition at 30 µM [2, 9]: 49.7%
SMILES: O=c1oc2c(c(O)c1C(c1cccc(N(CCc3ccccc3)S(=O)(=O)c3ccccc3)c1)C1CC1)CCCCCC2 (stereo not drawn) [Example 246, N-[3-[cyclopropyl(5,6,7,8,9,10-hexahydro-4-hydroxy-2-oxo-2H-cycloocta[b]pyran-3-yl)methyl]phenyl]-N-(2-phenylethyl)-benzenesulfonamide]

SMILES: COc1ccc(S(=O)(=O)Nc2cccc(C(c3c(O)c4c(oc3=O)CCCCCC4)C3CC3)c2)cc1OC (stereo not drawn) [Example 335, N-[3-[Cyclopropyl(5,6,7,8,9,10-hexahydro-4-hydroxy-2-oxo-2H-cycloocta[b]pyran-3-yl)methyl]phenyl]-3,4-dimethoxy-benzenesulfonamide]
inhibition at 0.123 µM [2]: 48.7%
inhibition at 0.37 µM [2, 3]: 82.9%
inhibition at 1.1 µM [2, 4]: 90.3%
inhibition at 3.3 µM [2, 5]: 96.8%
inhibition at 10 µM [2, 6]: 96.5%
inhibition at 30 µM [2, 7]: 106%

SMILES: Cc1cccc(S(=O)(=O)Nc2cccc(C(c3c(O)c4c(oc3=O)CCCCCC4)C3CC3)c2)c1 (stereo not drawn) [Example 336, N-[3-[Cyclopropyl(5,6,7,8,9,10-hexahydro-4-hydroxy-2-oxo-2H-cycloocta[b]pyran-3-yl)methyl]phenyl]-3-methyl-benzenesulfonamide]
inhibition at 0.123 µM [2]: 73.5%
inhibition at 0.37 µM [2, 3]: 87.3%
inhibition at 1.1 µM [2, 4]: 93%
inhibition at 3.3 µM [2, 5]: 94.6%
inhibition at 10 µM [2, 6]: 103%
inhibition at 30 µM [2, 7]: 108%

SMILES: CCCC(c1ccccc1)c1c(O)c2ccc(OC)cc2oc1=O (stereo not drawn) [Example 37, Coumarin, 7-methoxy-3-(α-propylbenzyl)4-hydroxy-]
IC50 [2]: 7000 nM
inhibition at 1 µM [2]: < 10%
inhibition at 10 µM [2, 6]: 59.5%
inhibition at 100 µM [2]: 103%

SMILES: CCC(c1cccc(C(=O)NCc2nc3ccccc3[nH]2)c1)c1c(O)c2ccccc2oc1=O (stereo not drawn) [Example 148, N-(1H-Benzoimidazol-2-ylmethyl)-3-(1-(4-hydroxy-2-oxo-2H-chromen-3-yl)-propyl)-benzamide]
inhibition at 1 µM [2]: < 10%
inhibition at 10 µM [2, 6]: 57.9%
inhibition at 100 µM [2]: 93.7%

inhibition at 1.1 µM [2, 10]: 14.3%
inhibition at 3.3 µM [2, 11]: 35.4%
inhibition at 10 µM [2, 8]: 64.5%
inhibition at 30 µM [2, 9]: 96.3%
SMILES: COCOCc1ccc(C(c2c(O)c3c(oc2=O)CCCCCC3)C2CC2)o1 (stereo not drawn) [Example 386]

SMILES: CCC(c1cccc(OC)c1)c1c(O)c2ccccc2oc1=O (stereo not drawn) [Example 102, Coumarin, 4-hydroxy-3-[1-(3-methoxyphenyl)propyl]-]
HIV-1 Protease % Inhib ([2]; dose 100.000 uM): 75.63%
inhibition at 1 µM [2]: < 10%
inhibition at 10 µM [2, 6]: 24%
inhibition at 100 µM [2]: 78.8%

SMILES: CC(c1cccc(C(=O)NCC(=O)N2CCOCC2)c1)c1c(O)c2ccccc2oc1=O (stereo not drawn) [Example 32, Coumarin, 4-hydroxy-3-[1-[3-[[[[(4-morpholino)carbonyl]methyl]amino]carbonyl]phenyl]ethyl]-]
inhibition at 1 µM [2]: < 10%
inhibition at 10 µM [2, 6]: < 10%
inhibition at 100 µM [2]: 46.5%

SMILES: CC(C)(C)OC(=O)N[C@H](Cc1c[nH]cn1)C(=O)Nc1cccc(C(c2c(O)c3c(oc2=O)CCCCCC3)C2CC2)c1 (stereo partly drawn) [Example 204, Carbamic acid, [2-[[3-[cyclopropyl(5,6,7,8,9,10-hexahydro-4-hydroxy-2-oxo-2H-cycloocta[b]pyran-3-yl)methyl]phenyl]amino]-1-(R)-(1H-imidazol-4-ylmethyl)-2-oxoethyl]-, 1,1-dimethylethyl ester]
inhibition at 0.123 µM [2]: 49%
inhibition at 0.37 µM [2, 3]: 86.5%
inhibition at 1.1 µM [2, 4]: 107%
inhibition at 3.3 µM [2, 5]: 114%
inhibition at 10 µM [2, 6]: 117%
inhibition at 30 µM [2, 7]: 116%

inhibition at 1.1 µM [2, 10]: 25.2%
inhibition at 3.3 µM [2, 11]: 63.6%
inhibition at 10 µM [2, 8]: 94%
inhibition at 30 µM [2, 9]: 101%
SMILES: CCC(c1cccc(NC(=O)CCN)c1)c1c(O)c2c(oc1=O)CCCCCC2 (stereo not drawn) [Example 220, Propanamide, 3-amino-N-[3-[1-(5,6,7,8,9,10-hexahydro4-hydroxy-2-oxo-2H-cycloocta[b]pyran-3-yl)propyl]phenyl]-, monohydrochloride]

SMILES: CCC(=O)c1ccc(C(CC)c2c(O)c3ccccc3oc2=O)cc1 (stereo not drawn) [Example 106, Coumarin, 4-hydroxy-3-[1-(4-propionylphenyl)propyl]-]
inhibition at 1 µM [2]: < 10%
inhibition at 10 µM [2, 6]: 11.7%
inhibition at 100 µM [2]: 71%

SMILES: CC(O)CC(c1ccccc1)c1c(O)c2ccccc2oc1=O (stereo not drawn) [Example 8, 4-Hydroxy-3-(3-hydroxy-1-phenylbutyl)-coumarin]
IC50 [2]: 41700 nM
inhibition at 1 µM [2]: < 10%
inhibition at 10 µM [2, 6]: 23.7%
inhibition at 100 µM [2]: 93.3%

inhibition at 3.3 µM [2, 11]: 11.4%
inhibition at 10 µM [2, 8]: 40.4%
inhibition at 30 µM [2, 9]: 57.2%
SMILES: O=c1oc2c(c(O)c1C(c1ccc(NS(=O)(=O)c3ccc(F)cc3)cc1)C1CC1)CCCCCC2 (stereo not drawn) [Example 474, Benzenesulfonamide, 4-fluoro-N-[4-[cycloptopyl(5,6,7,8,9,10-hexahydro-4-hydroxy-2-oxo-2H-cycloocta[b]pyran-3-yl)methyl]phenyl]-]

inhibition at 0.37 µM ([2]; dose 0.370 uM, read-out: HIV-1 Protease % Inhib): 13.6%
inhibition at 1.1 µM [2, 10]: 42.3%
inhibition at 3.3 µM [2, 11]: 69%
inhibition at 10 µM [2, 8]: 87.6%
inhibition at 30 µM [2, 9]: 89.5%
SMILES: COc1cccc(OC)c1S(=O)(=O)Nc1cccc(C(c2c(O)c3c(oc2=O)CCCCCC3)C2CC2)c1 (stereo not drawn) [Example 334, N-[3-[Cyclopropyl(5,6,7,8,9,10-hexahydro-4-hydroxy-2-oxo-2H-cycloocta[b]pyran-3-yl)methyl]phenyl]-2,6-dimethoxy-benzenesulfonamide]
